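Growth conditions: 96-well plates. Treatment: test compound, 48 hours, 5 concentrations. Analysis: linear interpolation between bracketing concentrations; unreached endpoints set to highest concentration. GI50 marks 50% less growth. Definition used: TGI = concentration required for complete inhibition of growth.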

Assay in all cases: growth of human tumour cells (NCI), 48 h
Test [1] relates to COLO 205 colon.
The test system of test [2] is DU-145 prostate.
In test [3] the test system is EKVX NSCLC.
In test [4] the test system is M14 melanoma.
Test [5] has as its system MOLT-4 leukemia.
Test [6] relates to NCI-H226 lung.
Test [7] relates to NCI-H23 lung.
Test [8] relates to NCI/ADR-RES ovarian.
For test [9], the system named is SNB-19 CNS.
The subject of test [10] is UACC-62 melanoma.

As to `CC1CC(C)/C(=N/NC(N)=O)C(C(O)CC2CCC(=O)NC2=O)C1` (stereo not given), the GI50 is 3.7 µM in [1]; 3.78 µM in test [2]; 2300 nM in [3]; 3640 nM in test [4]; 4.09 µM in test [5]; 4.69 µM in [6]. For the same molecule, the GI50 was 3.57 µM in test [7], 3.66 µM in test [8], 3.73 µM in test [9] and 2.79 µM in [10]. Also, the TGI was 51.5 µM in test [1]; 52.6 µM in [2]; 22.6 µM in test [3]; more than 100 µM in test [4]; more than 100 µM in [5]; more than 100 µM in test [6]. Besides, the TGI in [7], in test [8], in test [9] and in test [10] was more than 100 µM throughout.
Turning to `O=C1Nc2ccccc2/C1=C/c1cn(C(=O)c2c(Cl)cccc2Cl)c2ccccc12`, the GI50 was 7.52 µM in [1]; 2.72 µM in test [2]; 2830 nM in [3]; 2340 nM in [4]; 2.82 µM in test [5]; 7.48 µM in test [6]. Moreover, the GI50 in test [7] is 4.08 µM; in test [8], 3.4 µM; in test [9], 7.32 µM; in test [10], 4.8 µM. Besides, the TGI was 22.2 µM in test [1]; 9.24 µM in [2]; 16.3 µM in test [3]; 8.19 µM in test [4]; more than 100 µM in [5]; 27 µM in [6]. Besides, the TGI in [7] is 17.3 µM; in [8] it was 18 µM; in [9], more than 100 µM; in test [10], 19.9 µM.
For `O=C(Nc1ccc(Cl)cc1)c1ccc([N+](=O)[O-])o1`, the GI50 in [1] was 1.75 µM; in test [2] it was 3.95 µM; in test [3], 3020 nM; in [4] it was 1990 nM; in test [5] it was 7.19 µM; in test [6], 1.93 µM. Besides, the GI50 was 1.81 µM in [7], 2.55 µM in test [8], 2.6 µM in test [9] and 1.46 µM in [10]. The TGI was 3.18 µM in [1]; 11.4 µM in [2]; 12.5 µM in [3]; 4.28 µM in [4]; more than 100 µM in test [5]; 4.6 µM in [6]. In addition, the TGI is 4.54 µM in test [7], 11.4 µM in test [8], 10.6 µM in [9] and 3.1 µM in [10].
As for `O=C1Nc2ccccc2/C1=C/c1ccccc1`, the TGI in test [1] amounted to 30.9 µM; in [2] it was 27.4 µM; in [3], 28.8 µM; in [4], 30.6 µM; in [5] it was 57.5 µM; in [6] it was 37.4 µM. Also, the TGI in [7] came to 42.7 µM; in test [8], 70.6 µM; in test [9], 30 µM; in test [10], 30.7 µM.
For the molecule `Cc1ccc(NSc2ccccc2[N+](=O)[O-])cc1`, the GI50 is 0.149 µM in test [1]; 0.984 µM in test [2]; 2890 nM in test [3]; 146 nM in test [4]; 0.208 µM in [5]; 4.04 µM in [6]. Also, the GI50 in test [7] is 1.58 µM; in test [8], 0.148 µM; in [9], 1.22 µM; in test [10] it was 0.157 µM. Also, the TGI is 3.44 µM in test [1]; 15.3 µM in test [2]; 22.4 µM in [3]; 15.3 µM in test [4]; more than 62.7 µM in [5]; 20.8 µM in test [6]. Moreover, the TGI in test [7] came to 22.6 µM; in test [8], 14.3 µM; in test [9], 19.6 µM; in test [10], 17 µM.
As to `COC(=O)c1cc2c3ccccc3n3c(=O)c4cc5cc(OC)c(N(S(=O)(=O)c6ccc(C)cc6)S(=O)(=O)c6ccc(C)cc6)cc5nc4c(n1)c23`, the GI50 in [1] is more than 100 µM; in test [2] it was 32 µM; in test [3], 39200 nM; in test [4] it was 32700 nM; in [5], 35.2 µM; in test [6], 23.9 µM. Also, the GI50 in test [7] is 16.7 µM; in [8], more than 100 µM; in test [9] it was 5.8 µM; in test [10] it was 24.9 µM. Also, the TGI in test [1], in [2], in [3], in test [4], in test [5] and in test [6] was more than 100 µM each time. Further, the TGI in [7] is 63.2 µM; in [8], more than 100 µM; in test [9], 32 µM; in [10] it was more than 100 µM.
As for `COc1cc(C(=O)N2CCN(c3ccccc3OC)CC2)c(N)cc1OCc1ccccc1`, the GI50 in [1] is 59.4 µM; in test [2], 42 µM; in [3], 35700 nM; in test [4], 39300 nM; in test [5], 21.5 µM; in [6], 38.3 µM. Besides, the GI50 is 48.4 µM in [7], 33.5 µM in test [8], 25.7 µM in [9] and 26 µM in test [10]. Also, the TGI in test [1] was more than 100 µM; in test [2], more than 100 µM; in test [3], more than 100 µM; in [4], more than 100 µM; in [5], 53.6 µM; in [6] it was more than 100 µM. The TGI was more than 100 µM in test [7], more than 100 µM in test [8], more than 100 µM in test [9] and 77.1 µM in test [10].
